Source: US8754209B2, “Indazole derivatives or pharmaceutically acceptable salts thereof as protein kinase inhibitors for proliferative diseases treatment, and a pharmaceutical composition containing the same as an active ingredient” (Korea Institute of Science and Technology, priority 2009, dated 2014)

Columns and labels:
[1] = tested on: T3151-Bcr-Abl; details: cited from earlier work
[2] = target: B-Raf-V600E (Homo sapiens, UniProt P15056, V600E); assay: B-Raf kinase enzyme assay (MEK1/Erk2 cascade, MBP phosphorylation, 32P); type: biochemical; details: read-out: b-raf-V600Ekinase inhibitory activity (IC50)
Experimental: <1-1> Activation of MAP Kinase 2/Erk2 by B-raf
10 μl magnesium chloride/ATP solution (500 uM ATP, 75 mM magnesium chloride) was seeded in eppendorf tube. 2.5 μl B-Raf-V600E was seed (final conc. 1 ng) in eppendorf tube and treated with 1.6 μl deactivated MEK1 (final conc. 0.4 μg). The mixture was treated with 4 μl deactivated MAP kinase 2/Erk2 (final conc. 1.0 ug). And the mixture was treated with 1 μl example solution (10 mM) dissolved in dimethyl sulfoxide which was orderly diluted. Then, assay dilution buffer I (ADBI I) was added thereto (final vol. 38 μl) to make the final volume of 38 μl, and made it reacted at 30° C. for 30 min. 5 μl of resulting solution was used for the following experiment.
<1-2> Phosphorylation of Myelin basic protein (MBP)
5 μl of the above resulting solution was treated with 10 μl assay dilution buffer, and then treated with 10 μl Myelin basic protein (MBP, 2 mg/Ml). The mixture solution was treated with 10 μl of diluted (1/10) [γ^32P] ATP (100 uCi/vial) which is diluted at 30° C. for 10 min. 25 μl of the mixture solution was spotted onto a P81 paper, and the paper was washed four times with 0.75% phosphoric acid for 10 min and once with acetone for 5 min in scintillation vial. After 5 Ml of scintillation cocktail solution was added in the scintillation vial, signals were analyzed by scintillation counter.

[3] = tested on: A375P cells; assay: Anti-proliferative activity on A375P cell line (MTT assay); type: cell-based; details: A375P human melanoma cell line
Experimental: A375P cells were purchased from American Type Culture Collection (ATCC, Rockville, Md., US) and maintained in DMEM medium (Welgene, Daegu, Korea) supplemented with 10% FBS (Welgene) and 1% penicillin/streptomycin (Welgene) in a humidified atmosphere with 5% CO2 at 37° C. The A375P cells were taken from culture substrate with 0.05% trypsin-0.02% EDTA and plated at a density of 5×10^3 cells/well in 96 well plates and then incubated at 37° C. for 24 h in a humidified atmosphere with 5% CO2 prior to treatment of various concentration (three fold serial dilution, 12 points) of test compounds. The A357P cell viability was assessed by the conventional 3-(4,5-dimethylthiazol-2-yl)-2,5-diphenyltetrazolium bromide (MTT) reduction assay. MTT assays were carried out with CellTiter 96 (Promega) according to the manufacturer's instructions.
After 1 day, 0.5 μl the representative compounds of the examples were added thereto. The representative compounds of the examples were prepared by three fold serial dilution of 10 mM stock solution in DMSO, 12 point (final conc. DMSO 0.5%). Then, 15 μl dye was added in each well. After 2 h, 100 μl stop solution was added each well. After 24 h, absorbance was measured. The absorbance at 590 nm was recorded using EnVision2103 (PerkinElmer; Boston, Mass., US). The IC50 value was calculated using GraphPad Prism 4.0 software.

[4] = cited from earlier work
[5] = tested on: A375 melanoma cell line; details: raf-V660E overexpression cell strain; read-out: anti-proliferative activity IC50, A375 melanoma cell line; cited from earlier work
[6] = target: c-RAF (h) (Homo sapiens, UniProt P04049); assay: Kinase activity profiling service (Millipore); type: biochemical; details: read-out: Kinase inhibitory activity (IC50, uM) c-RAF (h)
Excerpt: (§1) Also, as mentioned above we tested kinase activities of the representative compounds of the examples using Kinase activity profiling service (Millipore UK Ltd Gemini Crescent, Dundee Technology Park, Dundee DD2 1SW, UK).

[7] = target: Fms (h) (Homo sapiens, UniProt P07333); assay: Kinase activity profiling service (Millipore); type: biochemical; details: read-out: Kinase inhibitory activity (IC50, uM) Fms (h)
Excerpt: as §1

[8] = target: SAPK2a (h) (Homo sapiens, UniProt Q16539); assay: Kinase activity profiling service (Millipore); type: biochemical; details: read-out: Kinase inhibitory activity (IC50, uM) SAPK2a (h)
Excerpt: as §1

[9] = target: Tie2 (h) (Homo sapiens, UniProt Q02763); assay: Kinase activity profiling service (Millipore); type: biochemical; details: read-out: Kinase inhibitory activity (IC50, uM) Tie2 (h)
Excerpt: as §1

[10] = target: KDR (h) (Homo sapiens, UniProt P35968); assay: Kinase activity profiling service (Millipore); type: biochemical; details: read-out: Kinase inhibitory activity (IC50, uM) KDR (h)
Excerpt: as §1

[11] = target: Ret (h) (Homo sapiens, UniProt P07949); assay: Kinase activity profiling service (Millipore); type: biochemical; details: read-out: Kinase inhibitory activity (IC50, uM) Ret (h)
Excerpt: as §1

B-Raf-V600E, sequence (P15056 whole entry V600E): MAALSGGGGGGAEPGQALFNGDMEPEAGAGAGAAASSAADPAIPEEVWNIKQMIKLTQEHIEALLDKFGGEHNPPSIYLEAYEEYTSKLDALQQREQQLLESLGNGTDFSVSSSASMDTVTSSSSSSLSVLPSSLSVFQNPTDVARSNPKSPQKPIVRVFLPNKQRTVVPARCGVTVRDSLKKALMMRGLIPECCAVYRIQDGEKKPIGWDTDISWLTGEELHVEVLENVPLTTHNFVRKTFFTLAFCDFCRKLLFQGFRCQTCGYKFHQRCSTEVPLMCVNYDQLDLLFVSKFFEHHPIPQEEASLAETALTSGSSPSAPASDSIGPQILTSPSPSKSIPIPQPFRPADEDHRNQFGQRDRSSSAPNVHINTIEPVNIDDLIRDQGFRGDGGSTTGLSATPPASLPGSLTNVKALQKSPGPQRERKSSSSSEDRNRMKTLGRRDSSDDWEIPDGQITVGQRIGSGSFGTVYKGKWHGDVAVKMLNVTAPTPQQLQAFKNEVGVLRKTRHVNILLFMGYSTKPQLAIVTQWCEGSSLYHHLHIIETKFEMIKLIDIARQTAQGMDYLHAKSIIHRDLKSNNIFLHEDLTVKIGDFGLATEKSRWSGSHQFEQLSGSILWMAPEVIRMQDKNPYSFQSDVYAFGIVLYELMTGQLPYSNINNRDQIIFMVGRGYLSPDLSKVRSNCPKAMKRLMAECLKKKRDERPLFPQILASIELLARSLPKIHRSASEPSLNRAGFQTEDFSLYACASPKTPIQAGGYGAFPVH
KDR (h), sequence (P35968 20-1356): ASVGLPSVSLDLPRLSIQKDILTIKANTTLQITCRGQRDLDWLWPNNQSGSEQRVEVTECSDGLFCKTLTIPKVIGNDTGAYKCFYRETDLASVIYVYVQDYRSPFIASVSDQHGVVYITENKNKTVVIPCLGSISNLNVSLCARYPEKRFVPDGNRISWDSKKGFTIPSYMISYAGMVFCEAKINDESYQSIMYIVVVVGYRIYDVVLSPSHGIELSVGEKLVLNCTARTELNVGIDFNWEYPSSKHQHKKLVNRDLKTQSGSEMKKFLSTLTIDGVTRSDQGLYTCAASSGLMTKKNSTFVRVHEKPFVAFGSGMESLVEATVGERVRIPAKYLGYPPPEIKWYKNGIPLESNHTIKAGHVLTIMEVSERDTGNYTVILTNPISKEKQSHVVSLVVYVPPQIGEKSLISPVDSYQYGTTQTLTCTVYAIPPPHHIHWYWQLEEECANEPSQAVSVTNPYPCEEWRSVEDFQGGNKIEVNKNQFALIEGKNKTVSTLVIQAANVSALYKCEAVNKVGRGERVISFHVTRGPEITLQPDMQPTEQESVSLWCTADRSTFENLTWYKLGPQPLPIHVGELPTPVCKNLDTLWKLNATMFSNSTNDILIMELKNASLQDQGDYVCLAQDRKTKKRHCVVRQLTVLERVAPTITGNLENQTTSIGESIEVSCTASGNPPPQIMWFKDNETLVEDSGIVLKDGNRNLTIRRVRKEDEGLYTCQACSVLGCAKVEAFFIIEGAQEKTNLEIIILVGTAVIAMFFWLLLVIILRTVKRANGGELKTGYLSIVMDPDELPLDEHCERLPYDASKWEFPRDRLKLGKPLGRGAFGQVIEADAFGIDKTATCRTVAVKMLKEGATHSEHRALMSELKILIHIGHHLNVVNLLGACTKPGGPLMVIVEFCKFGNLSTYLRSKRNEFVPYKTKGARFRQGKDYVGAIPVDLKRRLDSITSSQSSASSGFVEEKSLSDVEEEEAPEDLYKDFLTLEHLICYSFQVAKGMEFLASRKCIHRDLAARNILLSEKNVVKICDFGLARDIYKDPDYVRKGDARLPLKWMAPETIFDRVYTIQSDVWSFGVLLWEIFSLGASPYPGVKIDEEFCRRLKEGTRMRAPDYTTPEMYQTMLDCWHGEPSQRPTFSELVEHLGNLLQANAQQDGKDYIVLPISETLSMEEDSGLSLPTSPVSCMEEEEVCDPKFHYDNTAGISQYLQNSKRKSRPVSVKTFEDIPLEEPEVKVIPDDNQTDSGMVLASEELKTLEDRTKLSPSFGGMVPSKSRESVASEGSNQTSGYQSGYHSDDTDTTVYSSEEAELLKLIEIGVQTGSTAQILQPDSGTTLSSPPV
Fms (h), sequence (P07333 20-972): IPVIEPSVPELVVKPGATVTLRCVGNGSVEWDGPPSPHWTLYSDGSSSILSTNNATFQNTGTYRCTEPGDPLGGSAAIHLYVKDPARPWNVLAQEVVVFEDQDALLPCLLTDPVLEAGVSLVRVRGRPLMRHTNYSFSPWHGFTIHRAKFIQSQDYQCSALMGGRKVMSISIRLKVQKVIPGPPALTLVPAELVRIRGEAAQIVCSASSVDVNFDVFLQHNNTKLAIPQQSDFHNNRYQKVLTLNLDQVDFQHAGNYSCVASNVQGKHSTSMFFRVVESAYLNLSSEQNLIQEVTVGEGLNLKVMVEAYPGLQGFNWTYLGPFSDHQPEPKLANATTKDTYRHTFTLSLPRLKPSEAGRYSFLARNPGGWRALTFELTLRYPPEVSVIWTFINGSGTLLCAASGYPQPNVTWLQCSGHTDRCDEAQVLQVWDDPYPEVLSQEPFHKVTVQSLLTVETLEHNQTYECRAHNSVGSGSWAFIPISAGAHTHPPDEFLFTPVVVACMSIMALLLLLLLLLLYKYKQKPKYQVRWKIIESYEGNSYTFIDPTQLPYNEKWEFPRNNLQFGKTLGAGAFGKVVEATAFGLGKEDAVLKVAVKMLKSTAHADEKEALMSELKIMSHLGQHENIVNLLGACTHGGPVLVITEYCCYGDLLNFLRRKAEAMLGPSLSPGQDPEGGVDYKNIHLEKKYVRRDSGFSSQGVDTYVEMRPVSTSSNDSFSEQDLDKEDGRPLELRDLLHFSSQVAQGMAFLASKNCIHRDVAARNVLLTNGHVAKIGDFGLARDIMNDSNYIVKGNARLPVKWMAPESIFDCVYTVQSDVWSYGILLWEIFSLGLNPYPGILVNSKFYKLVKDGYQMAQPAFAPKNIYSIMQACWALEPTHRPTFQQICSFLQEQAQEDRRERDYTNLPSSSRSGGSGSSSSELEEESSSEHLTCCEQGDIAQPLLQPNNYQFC
Ret (h), sequence (P07949 29-1114): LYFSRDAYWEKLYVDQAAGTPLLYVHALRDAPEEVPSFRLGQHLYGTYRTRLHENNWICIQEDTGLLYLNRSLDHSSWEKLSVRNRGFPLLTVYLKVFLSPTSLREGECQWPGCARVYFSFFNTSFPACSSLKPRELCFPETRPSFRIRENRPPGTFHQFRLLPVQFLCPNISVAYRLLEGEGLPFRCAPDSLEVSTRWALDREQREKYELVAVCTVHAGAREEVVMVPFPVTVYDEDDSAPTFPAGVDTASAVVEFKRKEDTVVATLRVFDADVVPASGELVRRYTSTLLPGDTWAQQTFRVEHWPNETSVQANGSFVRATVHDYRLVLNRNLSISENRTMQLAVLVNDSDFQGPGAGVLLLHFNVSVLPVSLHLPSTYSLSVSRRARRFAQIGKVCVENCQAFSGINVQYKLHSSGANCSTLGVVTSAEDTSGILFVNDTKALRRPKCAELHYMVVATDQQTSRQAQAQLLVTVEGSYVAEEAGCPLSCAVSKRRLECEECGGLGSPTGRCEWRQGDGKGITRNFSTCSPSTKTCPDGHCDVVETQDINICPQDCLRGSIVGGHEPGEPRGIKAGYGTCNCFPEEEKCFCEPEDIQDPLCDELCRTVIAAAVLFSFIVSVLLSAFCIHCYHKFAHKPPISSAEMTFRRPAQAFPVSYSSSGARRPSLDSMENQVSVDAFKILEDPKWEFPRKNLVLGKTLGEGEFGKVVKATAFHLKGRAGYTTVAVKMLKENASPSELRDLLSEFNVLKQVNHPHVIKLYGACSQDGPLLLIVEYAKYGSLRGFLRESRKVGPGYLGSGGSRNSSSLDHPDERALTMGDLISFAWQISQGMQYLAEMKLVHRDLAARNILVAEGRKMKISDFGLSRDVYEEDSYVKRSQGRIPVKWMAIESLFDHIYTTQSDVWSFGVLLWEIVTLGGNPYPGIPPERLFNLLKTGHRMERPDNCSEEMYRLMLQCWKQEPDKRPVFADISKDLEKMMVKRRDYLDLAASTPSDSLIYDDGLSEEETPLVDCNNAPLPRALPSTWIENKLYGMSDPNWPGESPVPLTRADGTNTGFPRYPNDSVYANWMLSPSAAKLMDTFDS
c-RAF (h), sequence (P04049 whole entry): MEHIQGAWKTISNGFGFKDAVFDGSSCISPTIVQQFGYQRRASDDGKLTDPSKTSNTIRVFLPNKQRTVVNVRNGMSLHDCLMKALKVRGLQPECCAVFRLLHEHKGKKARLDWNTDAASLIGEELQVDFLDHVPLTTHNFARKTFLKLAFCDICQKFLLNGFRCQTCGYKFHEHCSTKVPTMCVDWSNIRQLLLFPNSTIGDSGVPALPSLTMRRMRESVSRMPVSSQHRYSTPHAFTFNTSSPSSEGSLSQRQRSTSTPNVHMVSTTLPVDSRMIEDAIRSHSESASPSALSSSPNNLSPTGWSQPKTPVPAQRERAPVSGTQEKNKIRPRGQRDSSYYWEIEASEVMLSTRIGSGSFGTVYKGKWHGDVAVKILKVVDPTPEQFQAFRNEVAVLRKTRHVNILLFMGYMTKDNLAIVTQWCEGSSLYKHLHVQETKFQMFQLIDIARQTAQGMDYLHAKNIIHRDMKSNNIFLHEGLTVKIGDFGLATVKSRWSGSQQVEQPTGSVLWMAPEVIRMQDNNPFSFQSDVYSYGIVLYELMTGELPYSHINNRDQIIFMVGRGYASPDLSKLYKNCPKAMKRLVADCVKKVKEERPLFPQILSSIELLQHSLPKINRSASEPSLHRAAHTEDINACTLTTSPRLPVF

**Q.** Which “activity on T3151-Bcr-Abl” value [1] does the source give for Cc1cn(-c2cc(NC(=O)c3ccc(C)c(Nc4nccc(-c5cccnc5)n4)c3)cc(C(F)(F)F)c2)cn1 [Nilotinib] here?
**A.** inactive

**Q.** Which results are given for CNC(=O)c1n[nH]c2cc(-c3ccc(NC(=O)c4cccc(C(F)(F)F)c4)cc3)ccc12 [Example 24, N-methyl-6-(4-(3-(trifluoromethyl)benzamido)phenyl)-1H-indazole-3-carboxamide]?
**A.** IC50 [2]: < 10 µM; GI50 [3]: < 10 µM

**Q.** Which results are given for CCOC(=O)c1n[nH]c2cc(-c3ccc(NC(=O)Nc4ccc(Cl)c(C(F)(F)F)c4)cc3)ccc12 [Example 21, ethyl 6-(4-(3-(4-chloro-3-(trifluoromethyl)phenyl)ureido)phenyl)-1H-indazole-3-carboxylate]?
**A.** IC50 [2]: < 10 µM; GI50 [3]: < 10 µM

**Q.** For CCOC(=O)c1n[nH]c2cc(-c3ccc(NC(=O)c4cnn(-c5ccc(OC)cc5)c4C(F)(F)F)cc3)ccc12 [Example 8, ethyl 6-(4-(1-(4-methoxyphenyl)-5-(trifluoromethyl)-1H-pyrazole-4-carboxamido)phenyl)-1H-indazole-3-carboxylate], which IC50 [2] is on record?
**A.** < 10 µM

**Q.** And the GI50 [3]?
**A.** < 10 µM

**Q.** With O=C(Nc1cccc(-c2ccc3c(CO)n[nH]c3c2)c1)Nc1ccc(Cl)c(C(F)(F)F)c1 [Example 79, 1-(4-chloro-3-(trifluoromethyl)phenyl)-3-(3-(3-(hydroxymethyl)-1H-indazol-6-yl)phenyl)urea] as the compound, how does the IC50 [2] read?
**A.** < 10 µM

**Q.** And the GI50 [3]?
**A.** < 10 µM

**Q.** Which results are given for CCOC(=O)c1n[nH]c2cc(-c3cc(NC(=O)Nc4ccc(Cl)c(C(F)(F)F)c4)ccc3C)ccc12 [Example 57, ethyl 6-(5-(3-(4-chloro-3-(trifluoromethyl)phenyl)ureido)-2-methylphenyl)-1H-indazole-3-carboxylate]?
**A.** IC50 [2]: < 10 µM; GI50 [3]: < 10 µM

**Q.** For CNC(=O)c1cc(Oc2ccc(NC(=O)Nc3ccc(Cl)c(C(F)(F)F)c3)cc2)ccn1 [Sorafenib], which “skin toxicity side effect, grade” value ([4]; 600 mg twice a day) is on record?
**A.** 3

**Q.** And the “MTD (maximum tolerated dose)” value ([4]; twice a day, phase II clinical investigation)?
**A.** 400 mg

**Q.** Which IC50 [2] does the source give for O=C(Nc1cccc(-c2ccc3c(C(=O)NCCN4CCOCC4)n[nH]c3c2)c1)c1cccc(C(F)(F)F)c1 [Example 50, N-(2-morpholinoethyl)-6-(3-(3-(trifluoromethyl)benzamido)phenyl)-1H-indazole-3-carboxamide] here?
**A.** < 10 µM

**Q.** Which results are given for CCOC(=O)c1n[nH]c2cc(-c3cccc(NC(=O)Cc4ccc(OC)c(OC)c4)c3)ccc12 [Example 48, ethyl 6-(3-(2-(3,4-dimethoxyphenyl)acetamido)phenyl)-1H-indazole-3-carboxylate]?
**A.** IC50 [2]: < 10 µM; GI50 [3]: < 10 µM

**Q.** Which IC50 [5] does the source give for CCCS(=O)(=O)Nc1ccc(F)c(C(=O)c2c[nH]c3ncc(Cl)cc23)c1F [PLX-4720] here?
**A.** 500 nM

**Q.** Which IC50 [2] does the source give for CCOC(=O)c1n[nH]c2cc(-c3cccc(NC(=O)Nc4cccc(Cl)c4Cl)c3)ccc12 [Example 54, ethyl 6-(3-(3-(2,3-dichlorophenyl)ureido)phenyl)-1H-indazole-3-carboxylate] here?
**A.** < 10 µM

**Q.** And the GI50 [3]?
**A.** < 10 µM

**Q.** Which results are given for O=C(Nc1cccc(-c2ccc3c(C(=O)NCCN4CCOCC4)n[nH]c3c2)c1)Nc1ccc(Cl)c(C(F)(F)F)c1 [Example 58, 6-(3-(3-(4-chloro-3-(trifluoromethyl)phenyl)ureido)phenyl)-N-(2-morpholinoethyl)-1H-indazole-3-carboxamide]?
**A.** IC50 [2]: < 10 µM; GI50 [3]: < 10 µM

**Q.** For CCOC(=O)c1n[nH]c2cc(-c3ccc(NC(=O)c4csc(-c5ccncc5)n4)cc3)ccc12 [Example 17, ethyl 6-(4-(2-(pyridin-4-yl)thiazole-4-carboxamido)phenyl)-1H-indazole-3-carboxylate], which IC50 [2] is on record?
**A.** < 10 µM

**Q.** Which IC50 [6] does the source give for Cc1ccc(NC(=O)Nc2ccc(Cl)c(C(F)(F)F)c2)cc1-c1ccc2c(C(=O)NCCN3CCOCC3)n[nH]c2c1 [Example 64, 6-(5-(3-(4-chloro-3-(trifluoromethyl)phenyl)ureido)-2-methylphenyl)-N-(2-morpholinoethyl)-1H-indazole-3-carboxamide] here?
**A.** 137 µM

**Q.** And the IC50 [7]?
**A.** 141 µM

**Q.** What about the IC50 [8] of the same compound?
**A.** 167 µM

**Q.** What about the IC50 [9] of the same compound?
**A.** 1510 µM

**Q.** What about the IC50 [10] of the same compound?
**A.** 332 µM

**Q.** And the IC50 [11]?
**A.** 603 µM

**Q.** And the IC50 [2]?
**A.** < 10 µM

**Q.** What about the GI50 [3] of the same compound?
**A.** < 10 µM
